The source of these data is paper PMC11903690 (Scientific Reports, 2025).

The test system of series [1] is SARS-CoV-2 (WK-521, ancestral strain). The experiment in a line: SARS-CoV-2 inhibition MTT assay in Vero E6/TMPRSS2 cells. The format is cell-based. The note with it: for EC50: Severe acute respiratory syndrome coronavirus 2, VeroE6/TMPRSS2; for Selectivity index: between EC50 and CC50, WK-521, Vero E6/TMPRSS2 cells.
Series [2] relates to sphingomyelin on the plasma membrane in Vero E6 cells. The format is cell-based. The note with it: 5 μM, 30 min, versus control (DMSO).
In series [3] the test system is SARS-CoV-2 mediated cell-to-cell fusion. The format is cell-based. The settings on record: 0.8 to 25 μM; 24 h.
A short description of the next series: in vitro. The note with it: African green monkey.
Series [4] deals with high fat diet-induced obesity mice models. The note with it: oral intake; cited from earlier work.

In series [1], `O=C(CCCCCCCCc1ccc(O)c(O)c1)c1c(O)cccc1O` [Compound 1, Malabaricone C] yielded an EC50 of 1.5 µM and a Selectivity index of 9.7. Also, in series [2], the “fluorescence intensity of EGFP-NT-Lys on the plasma membrane (clustered SM)” value is “lower than that of the control” and the “fluorescence intensity of EqtII-EGFP (dispersed SM)” value is on record as “almost no difference”. Moreover, the “inhibition of cell fusion (yellow hypertrophic cells)” value in series [3] is “increased in a dose-dependent manner”. In “in vitro”, this molecule had a CC50 of 14 µM. The “efficacies in high fat diet-induced obesity mice” value in series [4] was “reducing weight gain, improving glucose tolerance, and reducing hepatic steatosis”.

For `CCCCCC/C=C\CCCCCCCc1cccc(O)c1C(=O)O` [Ginkgolic acid], the EC50 in series [1] is 7.9 µM.

As for `CC(C)C(=O)OC[C@H]1O[C@@H](n2ccc(NO)nc2=O)[C@H](O)[C@@H]1O` [Molnupiravir], in series [1], the response was half-maximal at 0.15 µM (EC50) and the Selectivity index stood at 33.8. In “in vitro”, this molecule came in with a CC50 of 5.3 µM.

In series [1], `CCC(CC)COC(=O)[C@H](C)N[P@](=O)(OC[C@H]1O[C@@](C#N)(c2ccc3c(N)ncnn23)[C@H](O)[C@@H]1O)Oc1ccccc1` [Remdesivir] gave an EC50 of 0.5 µM. In “in vitro”, this molecule registered a CC50 above 10 µM.
